From patent publication US8372967B2, “Compounds and methods for modulating expression of GCCR” (Isis Pharmaceuticals, Inc., priority 2006, dated 2013)
Strand notation (5' to 3'): a small letter for the sugar, then the base; units joined by * are phosphorothioate-linked, units joined directly phosphodiester-linked; [ ] holds rarer units or linkages, { } end groups; capitals alone tell only the bases. e = 2'-O-(2-methoxyethyl) (MOE); [5mC] = 5-methylcytosine; d = 2'-deoxy (DNA)

Test system: PCSK9 mRNA
Type: cell-based, human
Details: Hep3B cells, 100 nM, relative to untreated control cells; for % Inhib: 0 = no reduction observed
Experimental: When cells reached appropriate confluency, they were treated with oligonucleotide using LIPOFECTIN® as described. […] Cells were treated and data were obtained in duplicate or triplicate. […] Cells were harvested 16-24 hours after oligonucleotide treatment.
Prior to quantitative PCR analysis, primer-probe sets specific to the target gene being measured were evaluated for their ability to be “multiplexed” with a GAPDH amplification reaction. After isolation the RNA is subjected to sequential reverse transcriptase (RT) reaction and real-time PCR, both of which are performed in the same well. RT and PCR reagents were obtained from Invitrogen Life Technologies (Carlsbad, Calif.). […] The RT reaction was carried out by incubation for 30 minutes at 48° C. Following a 10 minute incubation at 95° C. to activate the PLATIN 9M® Taq, 40 cycles of a two-step PCR protocol were carried out: 95° C. for 15 seconds (denaturation) followed by 60° C. for 1.5 minutes (annealing/extension).
170 μL of RiboGreen® working reagent (RiboGreen® reagent diluted 1:350 in 10 mM Tris-HCl, 1 mM EDTA, pH 7.5) was pipetted into a 96-well plate containing 30 μL purified cellular RNA. The plate was read in a CytoFluor® 4000 (PE Applied Biosystems) with excitation at 485 nm and emission at 530 nm.
Short antisense compounds targeted to a PCSK9 nucleic acid were tested for their effects on PCSK9 mRNA in vitro. The Isis No, gapmer motif and SEQ ID NO of each short antisense compound are shown again in Table 75. Cultured Hep3B cells were treated with 100 nM of short antisense compound. 5-10-5 MOE gapmers targeted to a PCSK9 nucleic acid were used as positive controls. After the treatment period, RNA was isolated from the cells and PCSK9 mRNA levels were measured by quantitative real-time PCR, as described herein. PCSK9 mRNA levels were adjusted according to total RNA content as measured by RIBOGREEN®. Results are presented in Table 75 as percent inhibition of PCSK9 (% Inhib), relative to untreated control cells.

| Substance | % Inhib [%] | % Inhibition Range |
| --- | --- | --- |
| 400355 (antisense eA*eG*dA*d[5mC]*dA*d[5mC]*d[5mC]*d[5mC]*dT*d[5mC]*dA*d[5mC]*e[5mC]*e[5mC]) [compound 400355] | 0 |  |
| 400356 (antisense eT*eA*dG*dA*d[5mC]*dA*d[5mC]*d[5mC]*d[5mC]*dT*d[5mC]*dA*e[5mC]*e[5mC]) [compound 400356] | 0 |  |
| 400357 (antisense eT*eG*dG*d[5mC]*dA*dG*d[5mC]*dA*dG*dG*dA*dA*eG*e[5mC]) [compound 400357] | 0 |  |
| 400358 (antisense eA*eT*dG*dG*d[5mC]*dA*dG*d[5mC]*dA*dG*dG*dA*eA*eG) [compound 400358] | 12 | 10-20% |
| 400359 (antisense e[5mC]*eA*dT*dG*dG*d[5mC]*dA*dG*d[5mC]*dA*dG*dG*eA*eA) [compound 400359] | 0 |  |
| 400360 (antisense eG*e[5mC]*dA*dT*dG*dG*d[5mC]*dA*dG*d[5mC]*dA*dG*eG*eA) [compound 400360] | 38 | 30-40% |
| 400361 (antisense eG*eG*d[5mC]*dA*dG*d[5mC]*dA*dG*dA*dT*dG*dG*e[5mC]*eA) [compound 400361] | 2 |  |
| 400362 (antisense e[5mC]*eG*dG*d[5mC]*dA*dG*d[5mC]*dA*dG*dA*dT*dG*eG*e[5mC]) [compound 400362] | 16 | 10-20% |
| 400363 (antisense e[5mC]*e[5mC]*dG*dG*d[5mC]*dA*dG*d[5mC]*dA*dG*dA*dT*eG*eG) [compound 400363] | 8 |  |
| 400364 (antisense eT*e[5mC]*d[5mC]*dG*dG*d[5mC]*dA*dG*d[5mC]*dA*dG*dA*eT*eG) [compound 400364] | 0 |  |
| 400365 (antisense e[5mC]*eT*d[5mC]*d[5mC]*dG*dG*d[5mC]*dA*dG*d[5mC]*dA*dG*eA*eT) [compound 400365] | 25 | 20-30% |
| 400366 (antisense eG*e[5mC]*dT*d[5mC]*d[5mC]*dG*dG*d[5mC]*dA*dG*d[5mC]*dA*eG*eA) [compound 400366] | 15 | 10-20% |
| 400367 (antisense eG*eG*d[5mC]*dT*d[5mC]*d[5mC]*dG*dG*d[5mC]*dA*dG*d[5mC]*eA*eG) [compound 400367] | 12 | 10-20% |
| 400368 (antisense e[5mC]*eG*dG*d[5mC]*dT*d[5mC]*d[5mC]*dG*dG*d[5mC]*dA*dG*e[5mC]*eA) [compound 400368] | 11 | 10-20% |
| 400369 (antisense e[5mC]*e[5mC]*dG*dG*d[5mC]*dT*d[5mC]*d[5mC]*dG*dG*d[5mC]*dA*eG*e[5mC]) [compound 400369] | 0 |  |
| 400370 (antisense eG*e[5mC]*d[5mC]*dG*dG*d[5mC]*dT*d[5mC]*d[5mC]*dG*dG*d[5mC]*eA*eG) [compound 400370] | 13 | 10-20% |
| 400371 (antisense eA*eG*dT*dT*dA*d[5mC]*dA*dA*dA*dA*dG*d[5mC]*eA*eA) [compound 400371] | 0 |  |
